“Also recorded” adds a separate entry of the source. One block for each molecule: values may come before it.
Assays:
[1] = tested on: C57BL mice on high-fat diet; settings: cited from earlier work
ob/ob mice = settings: 30 mg/kg intraperitoneally, male ob/ob mice; cited from earlier work
db/db mice = settings: cited from earlier work
bile duct-ligated mouse = settings: cited from earlier work
[2] = tested on: mice on a lithogenic diet; settings: cited from earlier work
[3] = molecular target: T1, Human FXRα Ligand Binding Domain (Homo sapiens, UniProt Q96RI1); experiment: FXR Cofactor Binding Assay (ligand mediated SRC-1 cofactor peptide interaction, time resolved fluorescence); format: biochemical; settings: FXRα LBD / SRC-1 (LCD2, 676-700) peptide, TRF; read-out: Activity (pEC50) (converted)
T1 construct: polyhistidine (pRSET-A vector leader) (N); made in house; host or cells: E. coli BL21 (DE3), pRSET-A vector
T1 sequence (Q96RI1 237-472 isoform Q96RI1-2): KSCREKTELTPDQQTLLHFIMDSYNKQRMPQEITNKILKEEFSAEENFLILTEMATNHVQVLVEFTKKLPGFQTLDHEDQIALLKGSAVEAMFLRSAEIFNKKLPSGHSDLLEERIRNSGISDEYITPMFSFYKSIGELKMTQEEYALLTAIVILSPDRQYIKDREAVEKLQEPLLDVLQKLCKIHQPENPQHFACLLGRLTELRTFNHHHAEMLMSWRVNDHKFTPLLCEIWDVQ
Excerpt: Determination of a ligand mediated cofactor peptide interaction to quantify ligand binding to the nuclear receptor Farnesoid X Receptor (FXR). The method measures the ability of putative ligands to modulate the interaction between the purified bacterial expressed FXRα ligand binding domain (LBD) and a synthetic biotinylated peptide based on residues 676-700 of steroid receptor coactivator-1 (SRC-1) (LXXLL-containing domain-2 where L is the amino acid leucine and X indicates any other amino acid (LCD2), 676-700). The sequence of the SRC-1 peptide used is as published in Iannone, M. A., et al., 2001 Cytometry 44:326-337 where the N-terminus was biotinylated (B) and the C-terminus was amidated. Detection of the associated complex was measured by time resolved fluorescence (TRF). The purified LBD of FXR was labeled with biotin, then mixed with stoichiometric amounts of allophycocyanin (APC) labeled streptavidin (Molecular Probes). The biotinylated peptide was then mixed with a ½ stoichiometric amount of europium labeled streptavidin (Wallac Inc). Each was then blocked with a 5 fold excess of biotin and allowed to equilibrate for 15 min. Equimolar amounts of receptor and peptide were mixed together and were allowed to equilibrate for at least 30 min prior to the addition to either a variable or constant concentrations of the sample for which the affinity is to be determined. After equilibration, the time-resolved fluorescent signal was quantitated using a fluorescent plate reader. The affinity of the test compound was estimated from a plot of fluorescence versus concentration of test compound added.
Ligands that promote the complex formation induce a concentration-dependent increase in time-resolved fluorescent signal.
Human FXRα Ligand Binding Domain (FXRα LBD) was expressed in E. coli strain BL21 (DE3) as an amino-terminal polyhistidine tagged fusion protein. Expression was under the control of an isopropyl-β-D-thiogalactopyranoside (IPTG) inducible T7 promoter. DNA encoding this recombinant protein is subcloned into the pRSET-A expression vector (Invitrogen). The coding sequence of Human FXRα LBD was derived from Genbank accession number U 68233 (amino acids 237 to 472).
Ten-liter fermentation batches were grown in Rich PO4 media with 0.1 mg/mL Ampicillin at 25° C. for 12 hours, cooled to 9° C. and held at that temperature for 36 hours to a density of OD600=14. At this cell density, 0.25 mM IPTG is added and induction proceeded for 24 hours at 9° C., to a final OD600=16. Cells are harvested by centrifugation (20 minutes, 3500×gravity, 4° C.), and concentrated cell slurries were stored in phosphate buffered saline (PBS) at […].
Routinely, 30-40 g cell paste (equivalent to 2-3 liters of the fermentation batch) was resuspended in 200-250 mL Tris buffered saline (TBS), pH 7.2 (25 mM Tris-hydroxymethylamino methane (Tris), 150 mM sodium chloride). Cells were lysed by passing 3 times through a French Press and cell debris was removed by centrifugation (30 minutes, 20,000×gravity, 4° C.). The cleared supernatant was filtered through course pre-filters, and TBS, pH 7.2, 500 mM imidazole was added to obtain a final imidazole concentration of 50 mM. This lysate was loaded onto a column (6×8 cm) packed with Sepharose [Ni^++ charged] Chelation resin (Pharmacia) and pre-equilibrated with TBS pH 7.2/50 mM imidazole. After washing to baseline absorbance with equilibration buffer, the column was washed with one column volume of TBS pH 7.2 containing 90 mM imidazole. FXRα LBD was eluted directly with 365 mM imidazole. Column fractions were pooled and dialyzed against TBS, pH 7.2, containing 0.5 mM EDTA and 5 mM DTT. The dialyzed protein sample was concentrated using Centri-prep 10 K (Amicon) and subjected to size exclusion, using a column (3×90 cm) packed with Sepharose S-75 resin (Pharmacia) pre-equilibrated with TBS, pH 7.2, containing 0.5 mM ethylene diamine tetraacetic acid (EDTA) and 5 mM dithiothreitol (DTT).

[4] = GW4064 100 mg/kg twice a day orally

Structure (SMILES): CC(C)c1onc(-c2c(Cl)cccc2Cl)c1COc1ccc(/C=C/c2cccc(C(=O)O)c2)c(Cl)c1 [GW4064]
body weight (high-fat diet induced body weight gain) ([1]; GW4064 100 mg/kg twice a day orally, 100 mg/kg): decreased; also recorded: reduced | glucose tolerance ([1]; GW4064 100 mg/kg twice a day orally, GTT, 100 mg/kg): corrected glucose intolerance; also recorded: appeared to improve | liver triglyceride content [1, 4]: reduced | serum glucose [1, 4]: decreased | serum insulin [1, 4]: decreased | serum triglyceride [1, 4]: decreased | body fat mass [1]: decreased | total cholesterol [1]: decreased | body weight (ob/ob mice): did not alter | fasting blood glucose (ob/ob mice): no effect | food intake (ob/ob mice): did not alter | glucose tolerance (ob/ob mice): improved | insulin concentration (ob/ob mice): decreased | insulin sensitivity (ob/ob mice): enhanced | glycogen storage in the liver (db/db mice; db/db mice): enhanced | insulin signalling in the liver (db/db mice; db/db mice): enhanced | hyperglycemia (db/db mice; diabetic db/db mice): significantly improved | hyperlipidemia (db/db mice; diabetic db/db mice): significantly improved | NEFA (db/db mice; oral 30 mg/kg, bid, db/db mice): decreased | blood glucose (db/db mice; oral 30 mg/kg, bid, db/db mice): decreased | serum hydroxybutyrate (db/db mice; oral 30 mg/kg, bid, db/db mice): decreased | total cholesterol (db/db mice; oral 30 mg/kg, bid, db/db mice): decreased | triglyceride (db/db mice; oral 30 mg/kg, bid, db/db mice): decreased | effect on translocation of bacteria in FXR null mice (bile duct-ligated mouse; FXR null mice): lost | bacterial overgrowth (bile duct-ligated mouse; bile duct-ligated mouse): decreased | mucosal barrier (bile duct-ligated mouse; bile duct-ligated mouse): improved | translocation of bacteria to mesenteric lymph nodes (bile duct-ligated mouse; bile duct-ligated mouse): decreased | effect on cholesterol crystal formation in FXR null mice ([2]; FXR null mice): lost | formation of cholesterol crystals in the bile ([2]; mice on a lithogenic diet): prevented

Structure (SMILES): CC(C)c1onc(-c2c(Cl)cccc2Cl)c1COc1ccc2c(ccn2Cc2cccc(C(=O)O)n2)c1 [Example 49, 6-{[5-({[3-(2,6-Dichlorophenyl)-5-(1-methylethyl)-4-isoxazolyl]methyl}oxy)-1H-indol-1-yl]methyl}-2-pyridinecarboxylic acid]
EC50 [3]: 102 to 1000 nM

Structure (SMILES): CC(C)c1onc(-c2c(Cl)cccc2Cl)c1COc1ccc2c(Cc3cccc(C(=O)O)c3)c[nH]c2c1 [Example 52, 3-{[6-({[3-(2,6-Dichlorophenyl)-5-(1-methylethyl)-4-isoxazolyl]methyl}oxy)-1H-indol-3-yl]methyl}benzoic acid]
EC50 [3]: 102 to 1000 nM

Structure (SMILES): CC(C)c1onc(-c2c(Cl)cccc2Cl)c1COc1ccc2c(ccn2S(=O)(=O)c2cccc(C(=O)O)c2)c1 [Example 43, 3-{[5-({[3-(2,6-Dichlorophenyl)-5-(1-methylethyl)-4-isoxazolyl]methyl}oxy)-1H-indol-1-yl]sulfonyl}benzoic acid]
EC50 [3]: 102 to 1000 nM

Structure (SMILES): CC(C)c1onc(-c2c(Cl)cccc2Cl)c1COc1ccc2c(c1)ncn2Cc1cccc(C(=O)O)c1 [Example 42, 3-{[5-({[3-(2,6-Dichlorophenyl)-5-(1-methylethyl)-4-isoxazolyl]methyl}oxy)-1H-benzimidazol-1-yl]methyl}benzoic acid]
EC50 [3]: 1020 to 10000 nM

Structure (SMILES): CC(C)c1onc(-c2c(Cl)cccc2Cl)c1CCc1nc2cc(-c3cccc(C(=O)O)c3)ccc2o1 [Example 39, 3-(2-{2-[3-(2,6-dichlorophenyl)-5-(1-methylethyl)-4-isoxazolyl]ethyl}-1,3-benzoxazol-5-yl)benzoic acid]
EC50 [3]: 1020 to 10000 nM

Structure (SMILES): CC(C)c1onc(-c2c(Cl)cccc2Cl)c1COc1ccc2cc(-c3cccc(N(S(=O)(=O)C(F)(F)F)S(=O)(=O)C(F)(F)F)c3)ccc2c1 [Example 26, N-{3-[6-({[3-(2,6-Dichlorophenyl)-5-(1-methylethyl)-4-isoxazolyl]methyl}oxy)-2-naphthalenyl]phenyl}-1,1,1-trifluoro-N-[(trifluoromethyl)sulfonyl]methanesulfonamide]
EC50 [3]: 102 to 1000 nM

Structure (SMILES): CC(C)c1onc(-c2c(Cl)cccc2Cl)c1COc1ccc2[nH]c(-c3cccc(C(=O)O)c3)cc2c1 [Example 56, 3-[5-({[3-(2,6-Dichlorophenyl)-5-(1-methylethyl)-4-isoxazolyl]methyl}oxy)-1H-indol-2-yl]benzoic acid]
EC50 [3]: 102 to 1000 nM

Structure (SMILES): CC(C)c1onc(-c2c(Cl)cccc2Cl)c1COc1ccc2cc(-c3ccc(C(=O)O)cc3)sc2c1 [Example 9, 4-[6-({[3-(2,6-Dichlorophenyl)-5-(1-methylethyl)-4-isoxazolyl]methyl}oxy)-1-benzothien-2-yl]benzoic acid]
EC50 [3]: 102 to 1000 nM

Structure (SMILES): CC(C)c1onc(-c2c(Cl)cccc2Cl)c1COc1ccc2nc(-c3cccc(C(=O)O)c3)sc2c1 [Example 11, 3-[6-({[3-(2,6-Dichlorophenyl)-5-(1-methylethyl)-4-isoxazolyl]methyl}oxy)-1,3-benzothiazol-2-yl]benzoic acid]
EC50 [3]: 102 to 1000 nM

Second part, the molecule after the results:

EC50 [3]: 102 to 1000 nM
Structure (SMILES): CC(C)c1onc(-c2c(Cl)cccc2Cl)c1COc1ccc2cc(-c3cccc(NS(=O)(=O)C(F)(F)F)c3)ccc2c1 [Example 28, N-{3-[6-({[3-(2,6-dichlorophenyl)-5-(1-methylethyl)-4-isoxazolyl]methyl}oxy)-2-naphthalenyl]phenyl}-1,1,1-trifluoromethanesulfonamide]

EC50 [3]: 102 to 1000 nM
Structure (SMILES): CC(C)c1onc(-c2c(Cl)cccc2Cl)c1COc1ccc2cc(-c3ccc(CCC(=O)O)cc3)ccc2c1 [Example 23, 3-{4-[6-({[3-(2,6-Dichlorophenyl)-5-(1-methylethyl)-4-isoxazolyl]methyl}oxy)-2-naphthalenyl]phenyl}propanoic acid]

EC50 [3]: 102 to 1000 nM
Structure (SMILES): CC(C)c1onc(-c2c(Cl)cccc2Cl)c1COc1ccc2cc(-c3ccc(F)c(C(=O)O)c3)ccc2c1 [Example 35, 5-[6-({[3-(2,6-Dichlorophenyl)-5-(1-methylethyl)-4-isoxazolyl]methyl}oxy)-2-naphthalenyl]-2-fluorobenzoic acid]

EC50 [3]: 102 to 1000 nM
Structure (SMILES): CC(C)c1onc(-c2c(Cl)cccc2Cl)c1COc1ccc2cc(-c3cccc(C(=O)O)n3)ccc2c1 [Example 18, 6-[6-({[3-(2,6-Dichlorophenyl)-5-(1-methylethyl)-4-isoxazolyl]methyl}oxy)-2-naphthalenyl]-2-pyridinecarboxylic acid]

EC50 [3]: 102 to 1000 nM
Structure (SMILES): CC(C)c1onc(-c2c(Cl)cccc2Cl)c1COc1ccc2cc(-c3ccc(NS(=O)(=O)C(F)(F)F)cc3)ccc2c1 [Example 32, N-{4-[6-({[3-(2,6-dichlorophenyl)-5-(1-methylethyl)-4-isoxazolyl]methyl}oxy)-2-naphthalenyl]phenyl}-1,1,1-trifluoromethanesulfonamide]

EC50 [3]: 102 to 1000 nM
Structure (SMILES): CC(=O)Nc1cccc(-c2ccc3cc(OCc4c(-c5c(Cl)cccc5Cl)noc4C(C)C)ccc3c2)c1 [Example 29, N-{3-[6-({[3-(2,6-dichlorophenyl)-5-(1-methylethyl)-4-isoxazolyl]methyl}oxy)-2-naphthalenyl]phenyl}acetamide]

From US20110034507A1, “FARNESOID X RECEPTOR AGONISTS” (SMITHKLINE BEECHAM CORPORATION, priority 2007, published 2011)
